Measured values as given in PubChem BioAssay (NCI).
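GI50 is the concentration that inhibits growth by half. At the TGI there is no net growth.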

Tests used:
Experiment in all cases: NCI tumour cell line growth inhibition, 384-well format
786-0 renal = tested on: 786-0 renal
A498 renal = tested on: A498 renal
A549 NSCLC = tested on: A549 NSCLC
ACHN renal = tested on: ACHN renal
BT-549 breast = tested on: BT-549 breast
CAKI-1 renal = tested on: CAKI-1 renal
CCRF-CEM leukemia = tested on: CCRF-CEM leukemia
COLO 205 colon = tested on: COLO 205 colon
DU-145 prostate = tested on: DU-145 prostate
HCC-2998 colon = tested on: HCC-2998 colon
HCT-116 colon = tested on: HCT-116 colon
HCT-15 colon = tested on: HCT-15 colon
HL-60(TB) leukemia = tested on: HL-60(TB) leukemia
HOP-62 NSCLC = tested on: HOP-62 NSCLC
HOP-92 NSCLC = tested on: HOP-92 NSCLC
HT29 colon = tested on: HT29 colon
IGROV1 ovarian = tested on: IGROV1 ovarian
K-562 leukemia = tested on: K-562 leukemia
KM12 colon = tested on: KM12 colon
LOX IMVI melanoma = tested on: LOX IMVI melanoma
M14 melanoma = tested on: M14 melanoma
MCF7 breast = tested on: MCF7 breast
MDA-MB-231 breast = tested on: MDA-MB-231 breast
MDA-MB-435 melanoma = tested on: MDA-MB-435 melanoma
MDA-MB-468 breast = tested on: MDA-MB-468 breast
MOLT-4 leukemia = tested on: MOLT-4 leukemia
NCI-H226 lung = tested on: NCI-H226 lung
NCI-H23 lung = tested on: NCI-H23 lung
NCI-H322M lung = tested on: NCI-H322M lung
NCI-H460 NSCLC = tested on: NCI-H460 NSCLC
NCI-H522 lung = tested on: NCI-H522 lung
NCI/ADR-RES ovarian = tested on: NCI/ADR-RES ovarian
OVCAR-3 ovarian = tested on: OVCAR-3 ovarian
OVCAR-4 ovarian = tested on: OVCAR-4 ovarian
OVCAR-5 ovarian = tested on: OVCAR-5 ovarian
OVCAR-8 ovarian = tested on: OVCAR-8 ovarian
PC-3 prostate = tested on: PC-3 prostate
RPMI-8226 leukemia = tested on: RPMI-8226 leukemia
RXF 393 renal = tested on: RXF 393 renal
SF-268 CNS = tested on: SF-268 CNS
SF-295 CNS = tested on: SF-295 CNS
SF-539 CNS = tested on: SF-539 CNS
SK-MEL-2 melanoma = tested on: SK-MEL-2 melanoma
SK-MEL-28 melanoma = tested on: SK-MEL-28 melanoma
SK-MEL-5 melanoma = tested on: SK-MEL-5 melanoma
SK-OV-3 ovarian = tested on: SK-OV-3 ovarian
SN12C renal = tested on: SN12C renal
SNB-19 CNS = tested on: SNB-19 CNS
SR leukemia = tested on: SR leukemia
SW-620 colon = tested on: SW-620 colon
T-47D breast = tested on: T-47D breast
TK-10 renal = tested on: TK-10 renal
U251 glioblastoma = tested on: U251 glioblastoma
UACC-257 melanoma = tested on: UACC-257 melanoma
UACC-62 melanoma = tested on: UACC-62 melanoma
UO-31 renal = tested on: UO-31 renal

## CNC(C)C(=O)N[C@H](C(=O)N1CCC[C@@H]1CN(CCc1ccccc1)C(=O)C(F)(F)F)[C@H](C)OCC#CC#CCO[C@H](C)[C@H](NC(=O)[C@H](C)NC)C(=O)N1CCC[C@H]1CN(CCc1ccccc1)C(=O)C(F)(F)F (some centres not stated)
786-0 renal
  GI50: 1.76 µM
  TGI: 3.16 µM
A498 renal
  GI50: 2.07 µM
  TGI: 4.56 µM
A549 NSCLC
  GI50: 3.32 µM
  TGI: 17.2 µM
ACHN renal
  GI50: > 100 µM
  TGI: > 100 µM
BT-549 breast
  GI50: < 0.01 µM
  TGI: 2.16 µM
CAKI-1 renal
  GI50: 6.02 µM
  TGI: 17.7 µM
CCRF-CEM leukemia
  GI50: 0.0253 µM
  TGI: 1.43 µM
COLO 205 colon
  GI50: 1.69 µM
  TGI: 3.08 µM
DU-145 prostate
  GI50: 1.74 µM
  TGI: 5.18 µM
HCC-2998 colon
  GI50: 1.31 µM
  TGI: 2.62 µM
HCT-116 colon
  GI50: 1.92 µM
  TGI: 3.35 µM
HCT-15 colon
  GI50: 21.3 µM
  TGI: > 100 µM
HL-60(TB) leukemia
  GI50: < 0.01 µM
  TGI: < 0.01 µM
HOP-62 NSCLC
  GI50: 0.906 µM
  TGI: 2.19 µM
HOP-92 NSCLC
  GI50: 0.31 µM
  TGI: 1.78 µM
HT29 colon
  GI50: 1.69 µM
  TGI: 3.1 µM
IGROV1 ovarian
  GI50: 5.72 µM
  TGI: 83.4 µM
K-562 leukemia
  GI50: 1.81 µM
  TGI: 3.23 µM
KM12 colon
  GI50: 1.72 µM
  TGI: 3.13 µM
LOX IMVI melanoma
  GI50: 2.06 µM
  TGI: 3.51 µM
M14 melanoma
  GI50: 1.8 µM
  TGI: 3.21 µM
MCF7 breast
  GI50: 1.3 µM
  TGI: 2.59 µM
MDA-MB-231 breast
  GI50: < 0.01 µM
  TGI: < 0.01 µM
MDA-MB-435 melanoma
  GI50: 0.0981 µM
  TGI: 1.94 µM
MDA-MB-468 breast
  GI50: < 0.01 µM
  TGI: 0.0785 µM
MOLT-4 leukemia
  GI50: 1.63 µM
  TGI: 2.99 µM
NCI-H226 lung
  GI50: 3.39 µM
  TGI: 16.7 µM
NCI-H23 lung
  GI50: 0.268 µM
  TGI: 7.59 µM
NCI-H322M lung
  GI50: 5.6 µM
  TGI: 22.7 µM
NCI-H460 NSCLC
  GI50: 1.68 µM
  TGI: 3.07 µM
NCI-H522 lung
  GI50: 0.906 µM
  TGI: 2.15 µM
NCI/ADR-RES ovarian
  GI50: > 100 µM
  TGI: > 100 µM
OVCAR-3 ovarian
  GI50: 1.25 µM
  TGI: 2.55 µM
OVCAR-4 ovarian
  GI50: < 0.01 µM
  TGI: < 0.01 µM
OVCAR-5 ovarian
  GI50: 58.9 µM
  TGI: > 100 µM
OVCAR-8 ovarian
  GI50: 1.05 µM
  TGI: 2.24 µM
PC-3 prostate
  GI50: 4.08 µM
  TGI: 13.4 µM
RPMI-8226 leukemia
  GI50: 0.617 µM
  TGI: 1.94 µM
RXF 393 renal
  GI50: < 0.01 µM
  TGI: 0.0625 µM
SF-268 CNS
  GI50: 1.74 µM
  TGI: 3.13 µM
SF-295 CNS
  GI50: 2.65 µM
  TGI: 14.5 µM
SF-539 CNS
  GI50: 1.54 µM
  TGI: 2.88 µM
SK-MEL-2 melanoma
  GI50: < 0.01 µM
  TGI: < 0.01 µM
SK-MEL-28 melanoma
  GI50: 1.45 µM
  TGI: 2.78 µM
SK-MEL-5 melanoma
  GI50: 0.149 µM
  TGI: 0.73 µM
SK-OV-3 ovarian
  GI50: < 0.01 µM
  TGI: 0.0719 µM
SN12C renal
  GI50: 2.34 µM
  TGI: 4.06 µM
SNB-19 CNS
  GI50: 6.77 µM
  TGI: 21.4 µM
SR leukemia
  GI50: 0.342 µM
  TGI: 1.96 µM
SW-620 colon
  GI50: 1.82 µM
  TGI: 3.24 µM
T-47D breast
  GI50: 1.6 µM
  TGI: 2.96 µM
TK-10 renal
  GI50: 2.52 µM
  TGI: 5.6 µM
U251 glioblastoma
  GI50: 1.71 µM
  TGI: 3.1 µM
UACC-257 melanoma
  GI50: 1.6 µM
  TGI: 2.96 µM
UACC-62 melanoma
  GI50: 1.73 µM
  TGI: 3.12 µM
UO-31 renal
  GI50: > 100 µM
  TGI: > 100 µM
